This test has as its system Adult mongrel dogs. Put plainly: Cardiotonic activity: hemodynamic and inotropic responses (MAP, HR, dP/dt, contractile force) in anesthetized dogs, iv infusion. The following applies: Canis lupus familiaris, Table 2, 1.875 mpk iv. It is filed as in vivo, mongrel dog. The method, then: Adult mongrel dogs were anesthetized with sodium pentobarbital (45 mg/kg, i.p.) and artificially respired. Mean arterial pressure (MAP) was recorded from a cannulated femoral artery and drugs were infused into a cannulated femoral vein. The arterial pressure pulse was used to trigger a cardiotachometer for determination of heart rate (HR). Left ventricular pressure was measured with a Millar catheter and dP/dtmax was derived. A right thoracotomy was performed and myocardial contractile force (CF) was measured with a Walton Brodie strain gauge sutured to the right ventricle. The ventricular muscle was stretched to produce a baseline tension of 100 g. A standard dose of dopamine (10-15 ug/kg/min for 3 min) was administered to determine myocardial responsiveness to inotropic stimulation.
Test compounds were solubilized in a small volume of DMF diluted to a final concentration of 10% in physiological saline. Alternatively, where possible, a soluble hydrochloride salt was prepared by addition of 0.1N HCl diluted in physiological saline. Vehicles were tested in appropriate volumes and found to exert less than a 5% effect on contractile force. For iv studies, compounds were administered by infusion pump (one drug per animal) at rates of 0.58-2.2 mL/min in three to four stepwise increasing doses. Each dose was infused over 5 min immediately after the effect of the previous dose peaked. MAP, HR, dP/dtmax and CF responses were continuously monitored on a Beckman or Gould recorder and expressed as a percent change from pre-drug control values vs. the cumulative dose of drug administered. For these studies, n represents the number of test animals used.
Quantitation of the inotropic potency was obtained by calculation of the contractile force (CF) ED50. This was defined as the dose of compound that produced a 50% increase above baseline in myocardial contractile force. The value was obtained from three to four point dose-response curves using either graphical estimation (n<3) or linear regression analysis (n≥3). Numbers in parentheses are number of animals screened.

[1] abbreviates: read-out: CF (myocardial contractile force), percent change from pre-drug control.
Where [2] appears, read: read-out: HR (heart rate), percent change from pre-drug control.
Where [3] appears, read: read-out: MAP (mean arterial pressure), percent change from pre-drug control.
[4] abbreviates: read-out: dP/dt (left ventricular dP/dtmax), percent change from pre-drug control.

Read-outs that look alike come from different tables or passages of the source.

With `Nc1nc(SCC(O)CN2CCN(C(c3ccc(F)cc3)c3ccc(F)cc3)CC2)c2nc[nH]c2n1` (stereo not drawn) [Example 25, 2-Amino-6-[1-[1-bis(4-fluorophenyl)methyl]piperazin-4-yl]-2-hydroxy-3-propanyl-thio]purine Hemihydrate], the change in vivo at 1.875 mg/kg is, setting by setting: under setting [1], 84%; under setting [2], 9%; under setting [3], -15%; under setting [4], 23%.
As for `COC(=O)CCn1cnc2c(SCC(CN3CCN(C(c4ccc(F)cc4)c4ccc(F)cc4)CC3)OC(C)=O)ncnc21` (stereo not drawn) [Example 26, 6-[1-[1-[Bis(4-fluorophenyl)methyl]piperazin-4-yl-]-2-acetoxy-3-propanylthio]purin-9-yl-3-propanoic acid, methyl ester], the change in vivo at 1.875 mg/kg is 34% under setting [1], -3% under setting [2], -10% under setting [3] and 29% under setting [4].
The corresponding values for `CCN(CC(O)CN1CCN(C(c2ccc(F)cc2)c2ccc(F)cc2)CC1)c1ncnc2nc[nH]c12` (stereo not drawn) [Example 27, 6-[3-[4-[Bis(4-fluorophenyl)methyl]piperazin-1-yl]-2-hydroxypropyl-N-ethylamino]purine] are 10%, 6%, 3% and 14%.
The corresponding values for `CN(CC(O)CN1CCN(C(c2ccc(F)cc2)c2ccc(F)cc2)CC1)c1ncnc2[nH]cnc12` (stereo not drawn) [Example 28, 6-[3-[4-[Bis(4-fluorophenyl)methyl]piperazin-1-yl]-2-hydroxypropyl-N-methylamino]purine Hemihydrate] are 95%, 16%, 9% and 82%.
For `Cn1cnc2c(SCC(O)CN3CCN(C(c4ccc(F)cc4)c4ccc(F)cc4)CC3)ncnc21` (stereo not drawn) [Example 29, 9-Methyl-6-[1-[1-[bis(4-fluorophenyl)methyl]piperazin-4-yl]-2-hydroxy-3-propanylthio]purine Hemihydrate] the same measures were 50%, -2%, -6% and 11%.
For the compound `Cc1nc(SCC(O)CN2CCN(C(c3ccc(F)cc3)c3ccc(F)cc3)CC2)c2nc[nH]c2n1` (stereo not drawn) [Example 30, 2-Methyl-6-[1-[1-[bis(4-fluorophenyl)methyl]piperazin-4-yl]-2-hydroxy-3-propanylthio]purine 3/4Hydrate], the change in vivo at 1.875 mg/kg by setting is: under setting [1], 23%; under setting [2], 1%; under setting [3], 1%; under setting [4], 17%.

These data come from patent US5164390A, “6-substituted purinyl piperazine derivatives” (Ortho Pharmaceutical Corporation, priority 1991, dated 1992).
